{"source": "paper PMC9386018", "about": "“A lymphatic-absorbed multi-targeted kinase inhibitor for myelofibrosis therapy” (Nature Communications, 2022)", "key": {"[1]": {"system": "MPL^W515L mouse model of myelofibrosis", "test": "MPL^W515L MF mouse model: spleen volume by MRI (Study 1)", "format": "in vivo", "details": "MPL^W515L mice; for Spleen volume to body weight ratio (mm3/g): individual animals", "experimental": "Generation of the MPL^W515L mutant MF mouse model was similar to previously described methods. Briefly, female donor BALB/c mice were treated with 5-fluorouracil at 150 mg kg^−1 intraperitoneal for 5 d before harvesting bone marrow. Hematopoietic stem and progenitor cells were enriched with CD117 magnetic beads (Miltenyi Biotec), transduced with retrovirus containing MSCV-hMPL W515L-IRES-GFP, then 50,000 transduced HSPCs along with 300,000 total non-stem cells were injected intravenously into lethally irradiated female BALB/c recipients. Development of MF was evaluated by spleen volumes using MRI beginning ~14 d following bone marrow transplantation (BMT) as outlined below, continuing weekly until end of the study. Mice were separated into equal groups based on spleen size ~14–21 d post-BMT, then treated with vehicle (Maisine CC) or LP-182 at 400 mg kg^−1 daily by oral gavage for 14–28 d or until mice were euthanized using guidelines for end stage illness and humane endpoints. Untreated healthy control animals were used for experimental comparisons. Tissues were harvested and processed for flow cytometry (as described above), LCMS/MS, immuno-blotting, and histological analysis (as described in Supplementary Methods) at the defined study endpoint(s), approximately 1–2 h post-treatment with vehicle or LP-182. Briefly, blood samples were collected, transferred into K2-EDTA tubes (BD Microtainer), inverted gently to mix, then centrifuged at 2000 x g for 15 min. […] Dissection and bone marrow isolation from mouse femur and tibia was performed similar to previously described methods. Briefly, the hind limbs from mice were dissected, muscle and connective tissue removed, and bones were frozen at −80 °C. Femur and tibia were thawed separately, placed knee-end down in 18 gauge needle-pierced 0.5 mL microcentrifuge tubes nested inside 1.5 or 2 mL microcentrifuge tubes containing 1.4 mm ceramic beads (Fisher Scientific), then bone marrow was isolated by centrifugation at 10,000 x g for 1 min and processed for analysis by LCMS/MS (above; femur) or immuno-blotting (tibia). […] Soluble protein extracts were isolated by centrifugation at 15,000 x g for 15 min at 4 °C, quantified using Micro BCA protein assay (Thermo Scientific), then mixed with reducing 6X SDS-PAGE loading dye, heated for 8 min at 95 °C, and stored at −20 °C until immuno-blot analysis. Whole cell lysates were resolved by 10% SDS-PAGE, transferred to PVDF (Immobilon-P; MilliporeSigma), then membranes were blocked with 5% BSA (Equitech-Bio) in TBS containing 0.1% Tween-20 (TBST) for 1 h at room temperature with gentle orbital shaking. Membranes were incubated with primary antibodies in 5% BSA/TBST overnight at 4 °C or 5% skim milk/TBST (Lab Scientific) for 1 h at room temperature, then washed with TBST, and incubated with HRP-conjugated secondary antibodies in 5% skim milk/TBST for 1.5 h at room temperature, all with gentle platform rocking. Membranes were washed with TBST, then visualized by chemiluminescence on a BioRad ChemiDoc MP Imaging System using SuperSignal West PicoPLUS or West Femto Chemiluminescent Substrate (Thermo Scientific). Membranes were stripped using Restore PLUS Western Blot Stripping Buffer (Thermo Scientific) as per manufacturer’s instructions and re-probed with additional primary antibodies as described above. […] All antibodies were used at dilutions recommended by their specified manufacturers or optimized empirically. Additional reagents were purchased from MilliporeSigma (St. Louis, MO) unless otherwise specified. Tissues for histology were formalin-fixed, paraffin-embedded, sectioned, and stained with Hematoxylin and Eosin (H&E) to assess cellularity and tissue morphology, with Reticulin Stain Kit (Connective Tissue Stain; Abcam) to assess fibrosis, or processed for immunohistochemistry staining with GFP to assess MPL^W515L-positive cellularity. […]"}, "[2]": {"target": "321 human protein kinases (Homo sapiens, UniProt P45984)", "sequence (P45984 whole entry)": "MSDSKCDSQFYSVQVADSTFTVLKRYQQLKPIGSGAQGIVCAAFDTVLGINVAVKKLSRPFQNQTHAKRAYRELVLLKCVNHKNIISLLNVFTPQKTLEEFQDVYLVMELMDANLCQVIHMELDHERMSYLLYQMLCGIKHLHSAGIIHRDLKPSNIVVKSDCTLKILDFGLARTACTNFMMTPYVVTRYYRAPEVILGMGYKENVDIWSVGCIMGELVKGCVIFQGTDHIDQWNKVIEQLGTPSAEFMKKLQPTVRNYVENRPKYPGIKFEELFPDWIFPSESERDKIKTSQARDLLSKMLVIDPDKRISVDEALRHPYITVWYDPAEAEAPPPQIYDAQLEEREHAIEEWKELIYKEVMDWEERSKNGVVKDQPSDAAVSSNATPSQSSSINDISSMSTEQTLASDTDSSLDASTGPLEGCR", "test": "Single-point broad panel kinome screening (SelectScreen Z'-LYTE and Adapta)", "format": "biochemical", "details": "MAPK9 (JNK2); […] LP-182; [ATP] 100 μM", "experimental": "(§1) Quantitation of kinase inhibition was carried out by Life Technologies (Madison, WI) using the SelectScreen profiling platforms Z’-LYTE^TM and Adapta^TM. Single-point broad panel kinome screening was performed at 2.5 µM LP-182 against all kinases within the Z’-LYTE^TM and Adapta^TM assays (321 kinase isoforms, holoenzymes, or mutant variants). The average percent kinase inhibition from replicate data was ranked low to high, converted to a compatible identifier format, then input into Coral Human Kinome Visualization software for presentation analysis. […] Scaling of evolutionary distance for PI kinases is only relative and is based on literature analysis[62],[63]. Average percent kinome inhibition values from replicate data are supplied in Source Data file. […]. Corrected data was normalized to vehicle treated control values, and dose response percent kinase activity was analyzed by non-linear regression for determination of IC50 values."}, "[3]": {"target": "321 human protein kinases (Homo sapiens, UniProt O15530)", "sequence (O15530 whole entry)": "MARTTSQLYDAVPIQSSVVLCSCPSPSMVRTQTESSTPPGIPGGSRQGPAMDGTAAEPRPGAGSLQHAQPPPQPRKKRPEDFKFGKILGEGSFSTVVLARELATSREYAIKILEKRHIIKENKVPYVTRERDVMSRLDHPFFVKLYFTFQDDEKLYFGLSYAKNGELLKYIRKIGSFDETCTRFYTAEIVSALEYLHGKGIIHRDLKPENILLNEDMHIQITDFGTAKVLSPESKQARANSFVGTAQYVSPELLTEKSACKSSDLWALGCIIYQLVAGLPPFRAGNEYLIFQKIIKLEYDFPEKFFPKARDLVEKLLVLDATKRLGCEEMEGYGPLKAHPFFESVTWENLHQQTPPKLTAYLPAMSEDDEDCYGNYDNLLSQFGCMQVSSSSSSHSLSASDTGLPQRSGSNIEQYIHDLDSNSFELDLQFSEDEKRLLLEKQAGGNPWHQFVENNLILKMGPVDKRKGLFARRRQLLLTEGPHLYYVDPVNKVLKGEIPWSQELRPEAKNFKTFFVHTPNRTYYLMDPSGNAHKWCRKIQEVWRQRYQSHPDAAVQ", "test": "Single-point broad panel kinome screening (SelectScreen Z'-LYTE and Adapta)", "format": "biochemical", "details": "PDK1; […] LP-182; [ATP] 100 μM", "experimental": "as §1"}, "[4]": {"target": "321 human protein kinases (Homo sapiens, UniProt Q16539)", "sequence (Q16539 whole entry)": "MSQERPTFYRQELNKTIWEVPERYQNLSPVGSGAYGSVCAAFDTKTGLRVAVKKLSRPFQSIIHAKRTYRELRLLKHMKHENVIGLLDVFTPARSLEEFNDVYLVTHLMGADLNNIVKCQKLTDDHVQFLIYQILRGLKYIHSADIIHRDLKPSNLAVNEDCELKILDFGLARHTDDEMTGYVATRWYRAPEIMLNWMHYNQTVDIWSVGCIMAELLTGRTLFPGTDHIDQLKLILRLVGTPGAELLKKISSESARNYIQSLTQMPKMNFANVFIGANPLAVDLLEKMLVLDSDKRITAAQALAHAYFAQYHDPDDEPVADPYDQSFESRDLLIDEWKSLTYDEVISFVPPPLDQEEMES", "test": "Single-point broad panel kinome screening (SelectScreen Z'-LYTE and Adapta)", "format": "biochemical", "details": "MAPK14 (p38 alpha); […] LP-182; [ATP] 100 μM", "experimental": "as §1"}, "[5]": {"target": "321 human protein kinases (Homo sapiens, UniProt P45983)", "sequence (P45983 whole entry)": "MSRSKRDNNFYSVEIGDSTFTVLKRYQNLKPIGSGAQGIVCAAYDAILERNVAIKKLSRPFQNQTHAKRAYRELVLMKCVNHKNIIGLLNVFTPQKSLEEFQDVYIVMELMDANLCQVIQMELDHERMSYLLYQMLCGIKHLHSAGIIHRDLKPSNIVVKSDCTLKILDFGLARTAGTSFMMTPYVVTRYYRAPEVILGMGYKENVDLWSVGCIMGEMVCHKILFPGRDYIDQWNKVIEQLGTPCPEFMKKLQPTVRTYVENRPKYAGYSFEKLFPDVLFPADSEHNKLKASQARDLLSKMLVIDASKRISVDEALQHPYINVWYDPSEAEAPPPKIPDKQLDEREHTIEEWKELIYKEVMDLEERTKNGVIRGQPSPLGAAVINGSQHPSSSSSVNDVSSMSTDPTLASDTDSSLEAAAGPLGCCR", "test": "Single-point broad panel kinome screening (SelectScreen Z'-LYTE and Adapta)", "format": "biochemical", "details": "MAPK8 (JNK1); […] LP-182; [ATP] 100 μM", "experimental": "as §1"}, "[6]": {"target": "321 human protein kinases (Homo sapiens, UniProt O14986)", "sequence (O14986 whole entry)": "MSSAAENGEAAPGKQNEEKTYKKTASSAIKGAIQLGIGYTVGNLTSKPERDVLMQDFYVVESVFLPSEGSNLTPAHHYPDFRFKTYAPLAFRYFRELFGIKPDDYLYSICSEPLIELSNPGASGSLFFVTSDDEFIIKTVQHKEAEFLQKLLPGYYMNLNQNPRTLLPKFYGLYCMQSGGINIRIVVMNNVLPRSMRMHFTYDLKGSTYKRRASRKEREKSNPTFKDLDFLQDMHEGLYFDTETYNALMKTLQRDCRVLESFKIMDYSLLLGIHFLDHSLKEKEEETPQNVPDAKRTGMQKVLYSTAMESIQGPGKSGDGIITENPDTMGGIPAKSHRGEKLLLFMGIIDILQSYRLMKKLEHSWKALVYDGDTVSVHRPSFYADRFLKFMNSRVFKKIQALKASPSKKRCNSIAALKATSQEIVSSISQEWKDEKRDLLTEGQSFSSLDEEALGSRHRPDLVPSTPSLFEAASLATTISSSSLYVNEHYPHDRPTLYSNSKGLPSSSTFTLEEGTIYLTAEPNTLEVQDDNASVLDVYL", "test": "Single-point broad panel kinome screening (SelectScreen Z'-LYTE and Adapta)", "format": "biochemical", "details": "PIP5K1B; […] LP-182; [ATP] 10 μM", "experimental": "as §1"}, "[7]": {"target": "321 human protein kinases (Homo sapiens, UniProt P42356)", "test": "Single-point broad panel kinome screening (SelectScreen Z'-LYTE and Adapta)", "format": "biochemical", "details": "PI4KA (PI4K alpha); […] LP-182; [ATP] 10 μM", "experimental": "as §1"}, "[8]": {"target": "321 human protein kinases (Homo sapiens, UniProt Q99755)", "sequence (Q99755 whole entry)": "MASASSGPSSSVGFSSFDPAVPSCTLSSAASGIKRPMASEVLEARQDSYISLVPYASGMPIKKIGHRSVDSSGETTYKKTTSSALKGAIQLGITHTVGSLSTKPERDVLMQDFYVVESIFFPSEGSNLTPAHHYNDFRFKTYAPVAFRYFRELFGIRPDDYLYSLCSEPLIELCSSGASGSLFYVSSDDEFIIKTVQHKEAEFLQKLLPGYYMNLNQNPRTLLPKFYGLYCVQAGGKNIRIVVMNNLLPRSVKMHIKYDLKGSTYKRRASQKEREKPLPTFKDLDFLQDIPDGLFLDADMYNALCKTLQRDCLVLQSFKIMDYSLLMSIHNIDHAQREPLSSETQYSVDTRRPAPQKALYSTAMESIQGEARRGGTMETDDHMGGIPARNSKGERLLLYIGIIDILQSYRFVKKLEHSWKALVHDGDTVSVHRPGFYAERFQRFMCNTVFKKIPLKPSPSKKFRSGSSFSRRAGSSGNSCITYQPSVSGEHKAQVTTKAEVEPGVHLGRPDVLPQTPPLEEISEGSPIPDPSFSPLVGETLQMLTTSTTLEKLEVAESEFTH", "test": "Single-point broad panel kinome screening (SelectScreen Z'-LYTE and Adapta)", "format": "biochemical", "details": "PIP5K1A; […] LP-182; [ATP] 10 μM", "experimental": "as §1"}, "[9]": {"target": "321 human protein kinases (Homo sapiens, UniProt P52564)", "sequence (P52564 whole entry)": "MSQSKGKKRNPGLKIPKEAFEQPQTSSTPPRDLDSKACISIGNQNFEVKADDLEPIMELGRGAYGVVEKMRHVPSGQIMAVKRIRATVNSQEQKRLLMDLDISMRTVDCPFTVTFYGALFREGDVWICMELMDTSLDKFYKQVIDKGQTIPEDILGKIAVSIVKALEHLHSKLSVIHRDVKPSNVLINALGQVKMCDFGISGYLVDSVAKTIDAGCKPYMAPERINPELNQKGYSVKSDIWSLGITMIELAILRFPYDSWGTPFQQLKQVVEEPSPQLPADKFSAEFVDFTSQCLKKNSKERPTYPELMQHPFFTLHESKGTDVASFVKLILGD", "test": "Single-point broad panel kinome screening (SelectScreen Z'-LYTE and Adapta)", "format": "biochemical", "details": "MAP2K6 (MKK6); […] LP-182; [ATP] 100 μM", "experimental": "as §1"}, "[10]": {"target": "321 human protein kinases (Homo sapiens, UniProt O60331)", "sequence (O60331 whole entry)": "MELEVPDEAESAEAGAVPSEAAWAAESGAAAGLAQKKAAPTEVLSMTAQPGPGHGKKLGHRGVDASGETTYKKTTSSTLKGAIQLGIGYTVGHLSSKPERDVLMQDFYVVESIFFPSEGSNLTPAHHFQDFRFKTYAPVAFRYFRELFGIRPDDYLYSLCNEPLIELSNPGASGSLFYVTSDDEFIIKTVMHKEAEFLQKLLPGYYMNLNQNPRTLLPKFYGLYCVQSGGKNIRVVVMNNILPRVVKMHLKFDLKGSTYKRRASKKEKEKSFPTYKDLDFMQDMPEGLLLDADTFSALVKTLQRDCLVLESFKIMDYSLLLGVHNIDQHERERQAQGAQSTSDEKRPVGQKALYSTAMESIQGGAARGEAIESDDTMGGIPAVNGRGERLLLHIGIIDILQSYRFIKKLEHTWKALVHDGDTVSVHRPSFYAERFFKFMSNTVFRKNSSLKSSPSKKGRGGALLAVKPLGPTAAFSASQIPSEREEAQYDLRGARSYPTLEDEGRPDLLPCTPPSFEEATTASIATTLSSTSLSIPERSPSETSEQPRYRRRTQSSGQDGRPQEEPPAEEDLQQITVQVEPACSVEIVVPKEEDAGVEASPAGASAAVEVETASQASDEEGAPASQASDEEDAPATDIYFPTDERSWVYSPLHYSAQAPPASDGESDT", "test": "Single-point broad panel kinome screening (SelectScreen Z'-LYTE and Adapta)", "format": "biochemical", "details": "PIP5K1C; […] LP-182; [ATP] 10 μM", "experimental": "as §1"}, "[11]": {"system": "MPL^W515L mouse model of myelofibrosis", "test": "MPL^W515L MF mouse model: histology of spleen, liver and bone marrow", "format": "in vivo", "details": "MPL^W515L mice, oral 400 mg kg^−1 daily, 28 d", "experimental": "Generation of the MPL^W515L mutant MF mouse model was similar to previously described methods. Briefly, female donor BALB/c mice were treated with 5-fluorouracil at 150 mg kg^−1 intraperitoneal for 5 d before harvesting bone marrow. Hematopoietic stem and progenitor cells were enriched with CD117 magnetic beads (Miltenyi Biotec), transduced with retrovirus containing MSCV-hMPL W515L-IRES-GFP, then 50,000 transduced HSPCs along with 300,000 total non-stem cells were injected intravenously into lethally irradiated female BALB/c recipients. Development of MF was evaluated by spleen volumes using MRI beginning ~14 d following bone marrow transplantation (BMT) as outlined below, continuing weekly until end of the study. Mice were separated into equal groups based on spleen size ~14–21 d post-BMT, then treated with vehicle (Maisine CC) or LP-182 at 400 mg kg^−1 daily by oral gavage for 14–28 d or until mice were euthanized using guidelines for end stage illness and humane endpoints. Untreated healthy control animals were used for experimental comparisons. […] Soluble protein extracts were isolated by centrifugation at 15,000 x g for 15 min at 4 °C, quantified using Micro BCA protein assay (Thermo Scientific), then mixed with reducing 6X SDS-PAGE loading dye, heated for 8 min at 95 °C, and stored at −20 °C until immuno-blot analysis. […]"}}, "note": "“And” between values parts separate entries of the source, which are not always exact repeats. Equal values may be shown once."}
{"smiles": "O=C(NOCCOCCOCCOCCC(=O)N1CCN(c2cnc3ccc(-c4cnc(Cl)c(NS(=O)(=O)c5ccc(F)cc5)c4)cc3n2)CC1)c1ccc(F)c(F)c1Nc1ccc(I)cc1F", "note": "[LP-182, N-(2-(2-(2-(3-(4-(7-(6-chloro-5-((4-fluorophenyl)sulfonamido)pyridin-3-yl)quinoxalin-2-yl)piperazin-1-yl)-3-oxopropoxy)ethoxy)ethoxy)ethoxy)-3,4-difluoro-2-((2-fluoro-4-iodophenyl)amino)benzamide]", "values": [{"measurement": "Spleen volume to body weight ratio (mm3/g)", "setting": "[1]; LP-182 group, treatment length 0 d (baseline)", "value": "31.0875 mm3/g and 17.4312 mm3/g and 19.0791 mm3/g and 34.919 mm3/g and 29.5281 mm3/g"}, {"measurement": "Spleen volume to body weight ratio (mm3/g)", "setting": "[1]; LP-182 group, treatment length -7 d (before treatment)", "value": "15.1103 mm3/g and 6.53 mm3/g and 9.708 mm3/g and 8.386 mm3/g and 11.4368 mm3/g"}, {"measurement": "reduction of spleen volume compared to vehicle", "setting": "[1]; oral 400 mg kg^−1 daily, after 14 d", "value": "~ 35%"}, {"measurement": "Spleen volume to body weight ratio (mm3/g)", "setting": "[1]; oral 400 mg kg^−1 daily, treatment length 7 d", "value": "26.2397 mm3/g and 11.9227 mm3/g and 23.2289 mm3/g and 24.8013 mm3/g and 24.121 mm3/g"}, {"measurement": "Spleen volume to body weight ratio (mm3/g)", "setting": "[1]; oral 400 mg kg^−1 daily, treatment length 14 d", "value": "25.0148 mm3/g and 4.765 mm3/g and 27.3514 mm3/g and 25.4021 mm3/g and 32.6974 mm3/g"}, {"measurement": "Spleen volume to body weight ratio (mm3/g)", "setting": "[1]; oral 400 mg kg^−1 daily, treatment length 21 d", "value": "28.0008 mm3/g and 4.203 mm3/g and 24.753 mm3/g and 31.0963 mm3/g and 27.5586 mm3/g"}, {"measurement": "inhibition at […]", "setting": "[2]", "value": 2.22, "unit": "%"}, {"measurement": "inhibition at […]", "setting": "[3]", "value": 15, "unit": "%"}, {"measurement": "inhibition at […]", "setting": "[4]", "value": 22, "unit": "%"}, {"measurement": "inhibition at […]", "setting": "[5]", "value": 15, "unit": "%"}, {"measurement": "% Inhibition", "setting": "[6]", "value": 14, "unit": "%"}, {"measurement": "inhibition at […]", "setting": "[6]", "value": 13, "unit": "%"}, {"measurement": "inhibition at […]", "setting": "[7]", "value": 24, "unit": "%"}, {"measurement": "inhibition at […]", "setting": "[8]", "value": 26, "unit": "%"}, {"measurement": "inhibition at […]", "setting": "[9]", "value": 16, "unit": "%"}, {"measurement": "inhibition at […]", "setting": "[10]", "value": 28, "unit": "%"}, {"measurement": "extramedullary hematopoiesis, number of MKs and MPL^W515L-positive MKs", "setting": "[11]", "value": "reduced"}, {"measurement": "reticulin fibrosis in bone marrow", "setting": "[11]", "value": "diminution of reticulin fibrosis"}]}
